Reference: patent US12440471B2, “Compositions and methods for the treatment of bronchopulmonary dysplasia (BPD) and BPD-associated pulmonary hypertension” (AyuVis Research, Inc., priority 2021, dated 2025)

What was measured:
[1] = test system: pre-term lamb BPD model; test: Pre-term lamb BPD model: respiratory severity score; assay type: in vivo
Text: A unique PT lamb model, developed by Dr. Albertine (University of Utah), was used to emulate the clinical setting for PT human infants with respiratory failure related to premature birth before the lungs are mature enough to support extra-uterine life. Both the PT lamb model and PT human infants are whole-organism physiological beings that have the setting of PT birth and prolonged ventilation support with oxygen-rich gas because of respiratory failure related to lung structural and functional immaturity, including surfactant deficiency. Ventilation support with oxygen-rich gas is for days, weeks, months, and is associated with co-morbidities of the brain, liver, distal ileum, and kidney injury, and inadequate nutrition and poor postnatal growth. This PT lamb model for BPD continues to provide mechanistic insights during the evolution of BPD (Joss-Moore, Metcalfe et al. 2010), development of multiple-organ dysfunction (Albertine 2012, Abdullah, Seidel et al. 2016), and long-term structural and functional impairments (Dahl, Bowen et al. 2018).
A dose range-finding study was conducted with the goal of treating two PT lambs with either a vehicle control or low, mid, and high doses of AVR-48 (compound 8) by twice daily intravenous infusions during 6 to 7 days of mechanical ventilation, followed by transition to noninvasive respiratory support (NIS) for 3 days, for a total of 10 days of management of these PT lambs. Compound 8 was not given during the period of noninvasive respiratory support to assess short-term persistence of effect of compound 8. The PK and PD parameters for compound 8 were also determined.
The modified PT lamb model used 6 d to 7 d of mechanical ventilation for respiratory management to identify temporal pathogenesis of the disease. […]
A total 9 lambs were used for this study. […] The PK parameters were calculated following both non-Compartmental Pharmacokinetic Modeling and population Pharmacokinetic Modeling as described by Roberts et al previously (Roberts, Stockmann et al. 2016). […] The blood samples also were analyzed for hematology and liver enzymes. […]

[2] = test system: Primary splenocytes of C57BL/6J mice; test: Polarization of mouse primary splenocytes, FACS; assay type: cell-based
Experimental: Primary splenocytes of C57BL/6J mice (n=3-5) were treated of AVR 48 for 72 hrs. PMA (200 ng/mL) was used as a positive control. The cells were washed and stained for CD11b and MHC-II and were analyzed by FACS. Dead cells were excluded by Live/dead staining during analysis. It was observed that the expression levels of MHC-II and CD11b increased upon AVR48 stimulation in a dose dependent manner in splenocytes. Monocytes were further analyzed for Ly6c. As described by (Swirski et al, J Clin Invest, 2007, 117(1):195-205. doi: 10.1172/JCI29950), spleen cells with LY6c Hi are considered as inflammatory whereas Ly6c low as resident and anti-inflammatory (FIG. 24A). Next, live singlet cells that were CD11b hi and CD11c low, were gated for F4/80 and MHC-II expression. Cells having increased expression of F4/80 and MHC-II were considered as macrophages whereas cells having low expression of F4/80 were considered as monocytes.

[3] = Oral PK of nanomilled formulations in adult SD rats; assay type: in vivo, rat; conditions: oral formulation, 100 mg/kg
Experimental: The test item, the stabilizer (HPC-SSL) and the surfactant (SDS) were accurately weighed and transferred in a 15-mL amber glass jar charged with 6 mL of yttrium-stabilized zirconia beads (0.8 mm). The suspension was brought to final weight with water in order to achieve the desired final concentration. The formulation was mixed using a vortex for at least 1 minute and then homogenized using a roller mill (Unitized Jar Mill, Model 755 RMV from U.S. Stoneware (purchased from Fisher Scientific Canada cat #08-381-1) at 50 rpm for 48 hours.
For the animal study, the suspensions prepared at 50 mg/mL were diluted to 10 mg/mL using a blank vehicle prepared using the same proportions of excipients as those indicated in Table I. By diluting the concentrated suspension of AVR-84 a clear solution was obtained whereas for AVR-48 the solution was a homogeneous cloudy solution.
Animals and dosing: The male SD rats (N=3) were obtained from Charles River. Each animal was weighed before the administration of the test item. […] At the specified time points, t=15′, 30′, 1 h, 2 h, 3 h, 4 h, 6 h, 8 h and 24 h (N=3), blood (100 μL) was collected via the saphenous vein using MINIVETTE® POCT K3-EDTA. The blood samples were centrifuged for 10 min at 965 g and 4° C. within 30 min of collection, to obtain plasma. Plasma samples were kept frozen at −80° C. The plasma samples were thawed on ice and kept on ice during the sample preparation. Thirty μL of plasma samples were mixed with 75 μL of precipitation solution (80% acetonitrile and 20% methanol containing IS) was added. Samples were mixed and centrifuged at 3500 rpm for 10 min at 4° C. Forty μL of the supernatant was transferred to a 96 well plate, and 80 μL of water+0.1% formic acid was added and analyzed using the in house developed HPLC method.

## CC(=O)N[C@@H]1C(Oc2ccc([N+](=O)[O-])cc2)OC(CO)C(O)C1O (stereo partly shown) [AVR-48]
[1]; 3.0 mg/kg IV, n=4, lowest RSS
  Respiratory Severity Score (RSS): 2.4
[1]; 1.0 and 3.0 mg/kg IV, 2/d, 7 days
  Respiratory Severity Score (RSS) vs placebo: Significant improvement
[1]; IV twice daily
  highest efficacious dose (RSS): 3.0 mg/kg
[2]; 48-72 h
  resident/anti-inflammatory macrophages (Ly6c hi/low): produces more resident/anti-inflammatory macrophages
[2]; 72 hrs, dose dependent manner
  expression level of CD11b: increased
  expression level of MHC-II: increased
[3]; male, SD (Sprague-Dawley), rat, plasma, adult rats n=3 (repeat of figure legend), read-out: Cmax
  Cmax: 3.64 ± 0.66 µM
[3]; male, SD (Sprague-Dawley), rat, plasma, adult rats n=3, read-out: Tmax
  Tmax: 42 ± 18 min
[3]; male, SD (Sprague-Dawley), rat, plasma, adult rats n=3, read-out: half-life (T v2) (converted)
  half-life: 36 ± 24 min
[3]
  plasma concentration profile: linear decline in drug concentration
